Where two headings read alike, the source gives them in different places.
What was measured:
[1] = log P by HPLC on reversed-phase column (C18), EEC Directive 79/831 Annex V.A8
Text: Called log P (HCOOH) in the table.
Called log P (neutral) in the table.

Phaedon cochleariae = Phaedon cochleariae spray test; assay type: in vivo; details: for pest or weed control at 500 g/ha: Phaedon cochleariae, 168 h, read-out: efficacy in %
Description: Phaedon cochleariae-Spray Test
Solvent: 78.0 parts by weight of acetone
(§1) • 1.5 parts by weight of dimethylformamide Emulsifier: alkylaryl polyglycol ether
(§2) To produce a suitable preparation of active compound, 1 part by weight of active compound is dissolved using the stated parts by weight of solvent and made up with water containing an emulsifier concentration of 1000 ppm until the desired concentration is attained. To produce further test concentrations, the preparation is diluted with emulsifier-containing water.
After 7 days, the efficacy in % is determined. 100% means that all the beetle larvae have been killed; 0% means that no beetle larvae have been killed.

Myzus persicae = Myzus persicae spray test (Chinese cabbage leaf discs); assay type: in vivo; details: for pest or weed control at 500 g/ha: Myzus persicae, foliar, 144 h, read-out: efficacy in %
Description: Myzus persicae Spray Test
Solvent: 78 parts by weight of acetone
as §1, §2
Discs of Chinese cabbage leaves (Brassica pekinensis) infested by all stages of the green peach aphid (Myzus persicae) are sprayed with an active compound preparation of the desired concentration.
After 6 days, the efficacy in % is determined. 100% means that all the aphids have been killed; 0% means that no aphids have been killed.

[2] = 500 g/ha, after 7 days, beetle larvae killed
[3] = 500 g/ha, after 6 days, aphids killed
[4] = LC-MS acidic range, pH 2.7 (HCOOH), C18, 55° C.
[5] = LC-MS neutral range, pH 7.8, C18, 55° C.

logP-acidic ([1]; pH 2.7)	Compound	logP-neutral ([1]; pH 7.8)	efficacy in % (Phaedon cochleariae; [2]) [%]	efficacy in % (Myzus persicae; [3]) [%]	further results
2.74	CCS(=O)(=O)c1ccc(NC(=O)C(F)(F)F)nc1-c1nc2cc(C(F)(F)F)ncc2n1C [Example 3]	1.73	100	100	–
–	CCS(=O)(=O)c1ccc(NC(=O)C(F)(F)C(F)(F)F)nc1-c1nc2cc(C(F)(F)F)ncc2n1C [Example 4]	–	100	100	logP-acidic [1, 4]: 3.17; logP-neutral [1, 5]: 1.94
–	CCS(=O)(=O)c1ccc(NN)nc1-c1nc2cc(C(F)(F)F)ncc2n1C [Example 55]	–	100	100	logP-acidic [1, 4]: 1.39
–	CCS(=O)(=O)c1ccc(NC)nc1-c1nc2cc(C(F)(F)F)ncc2n1C [Example 38]	–	100	90	logP-acidic [1, 4]: 2.05; logP-neutral [1, 5]: 2.03
2.60	CCS(=O)(=O)c1ccc(NC(=O)c2cscn2)nc1-c1nc2cc(C(F)(F)F)ncc2n1C [Example 66]	2.58	100	–	efficacy in % (Myzus persicae; 100 g/ha, after 6 days, aphids killed): 90%
2.98	CCS(=O)(=O)c1ccc(NC(=O)c2ccccc2)nc1-c1nc2cc(C(F)(F)F)ncc2n1C [Example 20]	–	83	90	–
1.81	CCS(=O)(=O)c1ccc(NC(=O)C(C)C[S+](C)[O-])nc1-c1nc2cc(C(F)(F)F)ncc2n1C (stereo not shown) [Example 57]	–	100	90	–
–	CCS(=O)(=O)c1ccc(NC(C)=S)nc1-c1nc2cc(C(F)(F)F)ncc2n1C [Example 63, N-[5-Ethylsulphonyl-6-[3-methyl-6-(trifluoromethyl)imidazo[4,5-c]pyridin-2-yl]-2-pyridyl]thioacetamide]	–	–	–	chromatographic logP ([1]; pH 2.7): 2.6; chromatographic logP ([1]; pH 7.8): 2.41; pest or weed control at 500 g/ha (Phaedon cochleariae): 100%; pest or weed control at 500 g/ha (Myzus persicae): 90%
–	CCS(=O)(=O)c1ccc(/S(C)=N/C#N)nc1-c1nc2cc(C(F)(F)F)ncc2n1C (stereo not shown) [Example 43, [{5-(Ethylsulphonyl)-6-[3-methyl-6-(trifluoromethyl)-3H-imidazo[4,5-c]pyridin-2-yl]pyridin-2-yl}(methyl)-lambda4-sulphanylidene]cyanamide]	–	–	–	chromatographic logP ([1]; reversed-phase HPLC column (C18), pH 2.7, logP-acidic, LC-MS acidic range, pH 2.7 (HCOOH), C18, 55° C.): 1.75; chromatographic logP ([1]; reversed-phase HPLC column (C18), pH 7.8, log P (neutral), preparation examples, neutral range, pH 7.8): 1.75; chromatographic logP ([1]; reversed-phase HPLC column (C18), pH 7.8, logP-neutral, LC-MS neutral range, pH 7.8, C18, 55° C.): 1.75; pest or weed control at 500 g/ha (Phaedon cochleariae; [2]): 100%; pest or weed control at 500 g/ha (Myzus persicae; [3]): 90%
2.02	CCS(=O)(=O)c1ccc(NC(=O)C(C)CS(C)(=O)=O)nc1-c1nc2cc(C(F)(F)F)ncc2n1C (stereo not shown) [Example 61]	–	100	100	–
1.63	CCS(=O)(=O)c1ccc(NC(=O)C[S+](C)[O-])nc1-c1nc2cc(C(F)(F)F)ncc2n1C (stereo not shown) [Example 70]	1.68	100	100	–

Compound	logP-acidic ([1]; pH 2.7)	logP-neutral ([1]; pH 7.8)	efficacy in % (Phaedon cochleariae; [2]) [%]	efficacy in % (Myzus persicae; [3]) [%]	further results
CCS(=O)(=O)c1ccc(C(=S)NC2CC2)nc1-c1nc2cc(C(F)(F)F)ncc2n1C [Example 36]	3.17	3.14	100	90	–
CCOCC(=O)Nc1ccc(S(=O)(=O)CC)c(-c2nc3cc(C(F)(F)F)ncc3n2C)n1 [Example 52]	2.64	2.51	100	100	–
CC[S+]([O-])c1ccc(NC(C)=O)nc1-c1nc2cc(C(F)(F)F)ncc2n1C (stereo not shown) [Example 9]	2.02	1.97	83	90	–
CCC(=O)Nc1ccc(S(=O)(=O)CC)c(-c2nc3cc(C(F)(F)F)ncc3n2C)n1 [Example 13]	2.33	2.28	100	90	–
CCS(=O)(=O)c1ccc(NC(=O)CSC)nc1-c1nc2cc(C(F)(F)F)ncc2n1C [Example 53]	2.51	2.38	100	90	–
